Test results published in US11590116B2 (THERAVANCE BIOPHARMA R&D IP, LLC, priority 2019, dated 2023).

Key:
[1] = target: T1, recombinant human ALK5 (TGF-βR1) protein (Homo sapiens, UniProt P36897); assay: Biochemical ALK5 (TGF-βR1) assay to measure pKi (LANCE Ultra ULight kinase assay); conditions: apparent pKi from pIC50 by Cheng-Prusoff, read-out: ALK5 pKi (converted)
T1 construct: purchased Life Technologies PR9075A
T1 sequence (P36897 34-503): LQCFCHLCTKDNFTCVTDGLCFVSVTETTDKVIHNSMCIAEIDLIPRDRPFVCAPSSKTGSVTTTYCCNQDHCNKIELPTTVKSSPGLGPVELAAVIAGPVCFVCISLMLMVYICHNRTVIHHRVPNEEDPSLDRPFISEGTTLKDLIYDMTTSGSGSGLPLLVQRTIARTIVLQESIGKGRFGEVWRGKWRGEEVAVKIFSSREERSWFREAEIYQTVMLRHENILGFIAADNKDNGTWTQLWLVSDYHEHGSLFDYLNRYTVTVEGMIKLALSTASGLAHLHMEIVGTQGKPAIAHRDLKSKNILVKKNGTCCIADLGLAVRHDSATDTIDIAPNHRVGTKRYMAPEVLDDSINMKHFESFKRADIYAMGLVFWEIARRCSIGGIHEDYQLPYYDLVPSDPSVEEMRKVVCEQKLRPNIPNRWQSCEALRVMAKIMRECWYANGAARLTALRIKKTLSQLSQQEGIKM
Outline: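 Compounds (10 μM to 25 pM) preincubated 60 minutes at room temperature with enzyme, then reaction run 60 minutes at 37° C with ATP added as 125 μM (5× final). Stopped with EDTA plus Eu-anti-phospho-Topoisomerase 2-alpha (Thr1342) antibody, TR-FRET read at 665 nm; pIC50 converted to pKi via Cheng-Prusoff.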

[2] = tested on: TGF-β-stimulated SMAD3 phosphorylation in BEAS-2B cells; assay: Cellular ALK5 potency assay, inhibition of TGF-β stimulated pSMAD3 formation in BEAS-2B cells; format: cell-based; conditions: Homo sapiens; inhibition of TGF-β stimulated pSMAD3 formation, BEAS-2B cells; read-out: BEAS2B pIC50 (converted)
Outline: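 BEAS-2B human lung epithelial cells pre-treated 1 h at 37° C with compound in HBSS/25 mM HEPES/1% BSA, then stimulated 30 min with 10 ng/mL TGF-β (final). Lysates assayed for pSMAD3 by AlphaLISA; pIC50 from dose-dependent change versus stimulated untreated cells.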

| Structure (SMILES) | Ki [1] | IC50 [2] |
| --- | --- | --- |
| CNCCn1cc(-c2cnc3ccc(-c4c(-c5cccc(C)n5)nnn4Cc4ccccc4)nc3c2)cn1 [Compound 439, 2-[4-[6-[3-benzyl-5-(6-methyl-2-pyridyl)triazol-4-yl]-1,5-naphthyridin-3-yl]pyrazol-1-yl]-N-methyl-ethanamine] | 0.0398 to 0.316 nM | 25.1 to 158 nM |
| Cc1cccc(-c2n[nH]cc2-c2ccc3ncc(-c4cn5c(n4)CN(C4CCNC4)CC5)cc3n2)n1 (centres unmarked) [Compound 440, 2-[3-(6-methyl-2-pyridyl)-1H-pyrazol-4-yl]-7-(7-pyrrolidin-3-yl-6,8-dihydro-5H-imidazo[1,2-a]pyrazin-2-yl)-1,5-naphthyridine] | 0.0398 to 0.316 nM | 200 to 1260 nM |
| Cc1cccc(-c2[nH]cnc2-c2ccc3ncc(Nc4ccc(N5CCN(C)CC5)cn4)cc3c2)n1 [Compound 441, N-[5-(4-methylpiperazin-1-yl)-2-pyridyl]-6-[5-(6-methyl-2-pyridyl)-1H-imidazol-4-yl]quinolin-3-amine] | < 0.0316 nM | 25.1 to 158 nM |
| COC(=O)[C@H]1CN(c2cnc3ccc(-c4c[nH]nc4-c4cccc(C)n4)nc3c2)CCN1 [Compound 442, methyl (2R)-4-[6-[3-(6-methyl-2-pyridyl)-1H-pyrazol-4-yl]-1,5-naphthyridin-3-yl]piperazine-2-carboxylate] | 0.0398 to 0.316 nM | 25.1 to 158 nM |
| Cc1cccc(-c2[nH]cnc2-c2ccc3ncc(-c4cnc5c(c4)CNC5)cc3c2)n1 [Compound 443, 3-(6,7-dihydro-5H-pyrrolo[3,4-b]pyridin-3-yl)-6-[5-(6-methyl-2-pyridyl)-1H-imidazol-4-yl]quinoline] | 0.0398 to 0.316 nM | 25.1 to 158 nM |
| Cc1cccc(-c2[nH]cnc2-c2ccc3ncc(C4=CCC(C(=O)OC5CCNCC5)CC4)cc3c2)n1 (centres unmarked) [Compound 444, 4-piperidyl 4-[6-[5-(6-methyl-2-pyridyl)-1H-imidazol-4-yl]-3-quinolyl]cyclohex-3-ene-1-carboxylate] | 0.0398 to 0.316 nM | 25.1 to 158 nM |
| Cc1cccc(-c2n[nH]cc2-c2ccc3ncc(-c4ncn5c4NCC5)cc3n2)n1 [Compound 445, 7-(2,3-dihydro-1H-imidazo[1,5-a]imidazol-7-yl)-2-[3-(6-methyl-2-pyridyl)-1H-pyrazol-4-yl]-1,5-naphthyridine] | 0.0398 to 0.316 nM | 25.1 to 158 nM |
| FC(F)c1cccc(-c2n[nH]cc2-c2ccc3ncc(N4CCCNCC4)cc3n2)n1 [Compound 446, 7-(1,4-diazepan-1-yl)-2-[3-[6-(difluoromethyl)-2-pyridyl]-1H-pyrazol-4-yl]-1,5-naphthyridine] | 0.0398 to 0.316 nM | 25.1 to 158 nM |
| Cc1nc(-c2nc3ccccn3c2-c2ccc3ncc(-c4nc5n(n4)CCNC5)cc3n2)ccc1F [Compound 447, 2-[2-(5-fluoro-6-methyl-2-pyridyl)imidazo[1,2-a]pyridin-3-yl]-7-(5,6,7,8-tetrahydro-[1,2,4]triazolo[1,5-a]pyrazin-2-yl)-1,5-naphthyridine] | 0.0398 to 0.316 nM | 25.1 to 158 nM |
| Cc1cccc(-c2nc[nH]c2-c2ccc3ncc(-c4cnn([C@@H]5CCCC[C@H]5N)c4)cc3c2)n1 [Compound 448, (1R,2R)-2-[4-[6-[4-(6-methyl-2-pyridyl)-1H-imidazol-5-yl]-3-quinolyl]pyrazol-1-yl]cyclohexanamine] | < 0.0316 nM | 25.1 to 158 nM |
| Cc1nc(-c2n[nH]cc2-c2ccc3ncc(-c4cn[nH]c4)cc3c2)ccc1F [Compound 449, 6-[3-(5-fluoro-6-methyl-2-pyridyl)-1H-pyrazol-4-yl]-3-(1H-pyrazol-4-yl)quinoline] | < 0.0316 nM | < 20 nM |
| Cc1cccc(-c2[nH]cnc2-c2ccc3ncc(-c4cccc(NC5CCNCC5)n4)cc3c2)n1 [Compound 450, 6-[6-[5-(6-methyl-2-pyridyl)-1H-imidazol-4-yl]-3-quinolyl]-N-(4-piperidyl)pyridin-2-amine] | 0.0398 to 0.316 nM | 25.1 to 158 nM |
| Cc1cccc(-c2[nH]cnc2-c2ccc3ncc(C4=C[C@H](C)N[C@H](C)C4)cc3c2)n1 [Compound 451, 3-[(2R,6S)-2,6-dimethyl-1,2,3,6-tetrahydropyridin-4-yl]-6-[5-(6-methyl-2-pyridyl)-1H-imidazol-4-yl]quinoline] | 0.0398 to 0.316 nM | 25.1 to 158 nM |
| Cc1cccc(-c2[nH]cnc2-c2ccc3ncc(C4=CCC(N(C)C)CC4)cc3n2)n1 (centres unmarked) [Compound 452, N,N-dimethyl-4-[6-[5-(6-methyl-2-pyridyl)-1H-imidazol-4-yl]-1,5-naphthyridin-3-yl]cyclohex-3-en-1-amine] | < 0.0316 nM | 25.1 to 158 nM |
| Cc1nc(-c2nc3ccccn3c2-c2ccc3ncc(Br)cc3n2)ccc1F [Compound 453, 7-bromo-2-[2-(5-fluoro-6-methyl-2-pyridyl)imidazo[1,2-a]pyridin-3-yl]-1,5-naphthyridine] | 0.398 to 3.16 nM | 1580 to 10000 nM |
| Cc1cc(-c2cnc3ccc(-c4c[nH]nc4-c4cccc(C)n4)nc3c2)ccn1 [Compound 454, 7-(2-methyl-4-pyridyl)-2-[3-(6-methyl-2-pyridyl)-1H-pyrazol-4-yl]-1,5-naphthyridine] | < 0.0316 nM | < 20 nM |
| Cc1nc(-c2n[nH]cc2-c2ccc3ncc(-c4cnn(CC5CC(N)C5)c4)cc3n2)ccc1F (centres unmarked) [Compound 455, 3-[[4-[6-[3-(5-fluoro-6-methyl-2-pyridyl)-1H-pyrazol-4-yl]-1,5-naphthyridin-3-yl]pyrazol-1-yl]methyl]cyclobutanamine] | 0.0398 to 0.316 nM | 25.1 to 158 nM |
| Cc1cccc(-c2[nH]cnc2-c2ccc3ncc(C4=CCC(NCC5CCOC5=O)CC4)cc3c2)n1 (centres unmarked) [Compound 456, 3-[[[4-[6-[5-(6-methyl-2-pyridyl)-1H-imidazol-4-yl]-3-quinolyl]cyclohex-3-en-1-yl]amino]methyl]tetrahydrofuran-2-one] | < 0.0316 nM | < 20 nM |
| Cc1nc(-c2nc3ccccn3c2-c2ccc3ncc(N4CCNCC4)cc3c2)ccc1F [Compound 457, 6-[2-(5-fluoro-6-methyl-2-pyridyl)imidazo[1,2-a]pyridin-3-yl]-3-piperazin-1-yl-quinoline] | 0.0398 to 0.316 nM | 25.1 to 158 nM |
| Cc1nc(-c2n[nH]cc2-c2ccc3ncc(-c4cnn(C5CCCNC5)c4)cc3c2)ccc1F (centres unmarked) [Compound 458, 6-[3-(5-fluoro-6-methyl-2-pyridyl)-1H-pyrazol-4-yl]-3-[1-(3-piperidyl)pyrazol-4-yl]quinoline] | < 0.0316 nM | < 20 nM |
| Cc1cccc(-c2[nH]cnc2-c2ccc3ncc(N4CC(N)C4)cc3c2)n1 [Compound 460, 1-[6-[5-(6-methyl-2-pyridyl)-1H-imidazol-4-yl]-3-quinolyl]azetidin-3-amine] | 0.0398 to 0.316 nM | 25.1 to 158 nM |
| Cc1cccc(-c2[nH]cnc2-c2ccc3ncc(C4=CCC(C(=O)O)CC4)cc3c2)n1 (centres unmarked) [Compound 461, 4-[6-[5-(6-methyl-2-pyridyl)-1H-imidazol-4-yl]-3-quinolyl]cyclohex-3-ene-1-carboxylic acid] | 0.0398 to 0.316 nM | 25.1 to 158 nM |
| Cc1cccc(-c2n[nH]cc2-c2ccc3ncc(-c4nc(C(F)(F)F)n5c4CNCC5)cc3n2)n1 [Compound 465, 2-[3-(6-methyl-2-pyridyl)-1H-pyrazol-4-yl]-7-[3-(trifluoromethyl)-5,6,7,8-tetrahydroimidazo[1,5-a]pyrazin-1-yl]-1,5-naphthyridine] | 0.0398 to 0.316 nM | 25.1 to 158 nM |
| Cc1nc(-c2n[nH]cc2-c2ccc3ncc(-c4nnn5c4CNCC5)cc3n2)ccc1F [Compound 466, 2-[3-(5-fluoro-6-methyl-2-pyridyl)-1H-pyrazol-4-yl]-7-(4,5,6,7-tetrahydrotriazolo[1,5-a]pyrazin-3-yl)-1,5-naphthyridine] | 0.0398 to 0.316 nM | 25.1 to 158 nM |
| Cc1cccc(-c2[nH]cnc2-c2ccc3ncc(NCCN4CCN(C(C)C)CC4)cc3c2)n1 [Compound 467, N-[2-(4-isopropylpiperazin-1-yl)ethyl]-6-[5-(6-methyl-2-pyridyl)-1H-imidazol-4-yl]quinolin-3-amine] | 0.0398 to 0.316 nM | 25.1 to 158 nM |
| Cc1cccc(-c2n[nH]c(NCCN3CCOCC3)c2-c2ccc3ncc(-c4ccncc4)cc3n2)n1 [Compound 468, 3-(6-methylpyridin-2-yl)-N-(2-morpholinoethyl)-4-(7-(pyridin-4-yl)-1,5-naphthyridin-2-yl)-1H-pyrazol-5-amine] | 0.0398 to 0.316 nM | 200 to 1260 nM |
| Cc1cccc(-c2nc3ccccn3c2-c2ccc3ncc(-c4cn[nH]c4)cc3n2)n1 [Compound 469, 2-(2-(6-methylpyridin-2-yl)imidazo[1,2-a]pyridin-3-yl)-7-(1H-pyrazol-4-yl)-1,5-naphthyridine] | 0.0398 to 0.316 nM | < 20 nM |
| Cc1cccc(-c2n[nH]cc2-c2ccc3ncc(C4CCNCC4)cc3n2)n1 [Compound 470, 2-[3-(6-methyl-2-pyridyl)-1H-pyrazol-4-yl]-7-(4-piperidyl)-1,5-naphthyridine] | 0.398 to 3.16 nM | 25.1 to 158 nM |
